{"source": "patent US20250177566A1", "about": "“USE OF CHEMICAL EPIGENETIC MODIFIERS TO MODULATE GENE EXPRESSION” (The University of North Carolina at Chapel Hill, priority 2022, published 2025)", "key": {"[1]": {"tested_on": "TRE3G-GFP reporter gene", "experiment": "TRE3G-GFP reporter gene activation in HCT116, dCas9 + MS2-FKBP*x2 (F36V) system, flow cytometry", "type": "cell-based, human", "parameters": "fold change, GFP: reference not given here", "details": "for fold change, GFP (Treated vs Non-Treated): FIG. 1E, 48 hours; for fold change, GFP: 48 hrs"}, "[2]": {"tested_on": "CXCR4", "experiment": "CXCR4 mRNA activation in HCT116 stably expressing dCas9 and MS2-FKBP*x2, qRT-PCR", "type": "cell-based, human", "details": "FIG. 2C; 5 nM; 48 hrs", "method": "To further explore the activation potential of the SLF*-CEMa, their ability to target endogenous genes was evaluated (FIGS. 2A and 2B). Lentivirus was used to establish a stable HCT116 cell line expressing dCas9 and MS2-FKBP*x2 constructs, selecting for cells with antibiotic resistance. […] All CEMs were screened for their ability to activate the CXCR4 gene at 5 nM (FIG. 2C). RNA extraction and quantitative RT-PCR (qRT-PCR) were performed after 48 hours of CEM treatment.\nTo determine the optimal treatment concentration of the SLF*-CEMa molecules in this context, HCT116 cells were treated with 1 nM, 5 nM, 25 nM, and 50 nM of CEM203, CEM207, or CEM87. […] After 48 hours, RNA extraction followed by qRT-PCR was performed to evaluate the change in mRNA expression of CXCR4 (FIG. 2D). […] To directly compare this induced activation to other CRISPR-Cas9-based epigenetic activators, dCas9-VPR and dCas9-p300 constructs were virally infected into HCT116 cells and CXCR4 activation assessed in a similar fashion (FIGS. 2A and 2B).\nTo determine the time at which SLF*-CEMa most effectively induces gene activation, CXCR4 gene expression changes over time were investigated in dCas9 and MS2-FKBP*x2 stably infected HCT116 cells. Cells were treated with either vehicle, […] (FIG. 3A). RNA extraction and qRT-PCR were performed at 12, 24, 48, 72, and 96 hrs time points (FIG. 3B).\nTo investigate if endogenous gene activation triggered by the SLF*-CEMa compounds is also reversible, HCT116 cells were treated with CEM203 (50 nM) or CEM207 (25 nM) for 24 hours after transfecting CXCR4 gRNA, and then the CEMs were removed by media exchange at various time points. […] Likewise, it was investigated whether treatment with excess AP1867 could further reverse gene activation, potentially in a more robust fashion than with washout alone if there is any remaining intracellular SLF*-CEMa. To test this, after 24 hours of SLF*-CEMa treatment, a media exchange containing 20 μM AP1867 was performed (FIGS. 3C and 3D).\nRNA extraction and qRT-PCR. All RNA extraction experiments were conducted in 12-well plate format. Culturing medium was removed, and cells were washed with 1×PBS, following with 0.05% trypsin to disassociate. After being quenched by medium and centrifuged, cells were washed with 1×PBS, and the RNA extraction was performed by using RNeasy Plus Mini kit (Qiagen, 74134). RT-qPCR was conducted by using RNA-to CT 1-step kit (Thermo Fisher Scientific, 4389986). The primer sets used in quantifying each gene can be found in Table 4."}, "[3]": {"tested_on": "TRE3G-GFP reporter gene", "details": "WT FKBP (MS2-FKBPx2), 48 hrs", "quoted_text": "HCT116 cells were transfected with TRE3G-GFP, dCas9, MS2-FKPB*x2, and TRE3G gRNA or NT gRNA. After 48 hrs of 10 nM SLF*-CEMa treatment, flow cytometry was performed and mean fluorescent value was collected. […] TRE3G-GFP, dCas9, MS2-FKBP*2, TRE3G gRNA or NT gRNA were transfected into HCT116 cells. The media was changed to media with 5 nM CEM207 together with 0 nM, 50 nM, 500 nM or 5000 nM of AP1867, respectively. After 48 hrs chemical exposure, flow cytometry was performed and the mean fluorescent value was measured in each group of cells. […] FIGS. 5D and 5E are dose curves of CEMa molecules activating the GFP reporter gene in HCT116 cells using WT FKBP and dCas9 as DNA binding module. HCT116 cells were transfected with dCas9, MS2-FKBPx2, TRE3G-GFP constructs, along with TRE3G gRNA or NT gRNA. Cells were treated with different concentrations of CEMa molecules for 48 hrs before flow cytometry was conducted. […] Error bars represent the standard deviation.\nTo better understand the activity of SLF*-CEMa in the WT FKBP-based GFP reporter assay, a similar dose-response assay was conducted in HCT116 cells transfected with dCas9 and MS2-FKBPx2 (FIGS. 1D and 1E).\nFlow cytometry. All flow cytometry experiments were performed with Attune Nxt as previously described. […] Significance was determined by Student's t-test."}}, "note": "Read-outs that look alike come from different tables or passages of the source.", "data": [{"smiles": "CC[C@H](C(=O)N1CCCC[C@H]1C(=O)O[C@H](CCc1ccc(OC)c(OC)c1)c1cccc(OCC(=O)NCCOCCOCCOCCNC(=O)C[C@@H]2N=C(c3ccc(Cl)cc3)c3cc(OC)ccc3-n3c(C)nnc32)c1)c1cc(OC)c(OC)c(OC)c1", "note": "[CEM202, (1R)-1-(3-((17-((4S)-6-(4-Chlorophenyl)-8-methoxy-1-methyl-4/I-benzo[f][1,2,4]triazolo[4,3-a][1,4]diazepin-4-yl)-2,16-dioxo-6,9,12-trioxa-3,15-diazaheptadecyl)oxy)phenyl)-3-(3,4-dimethoxyphenyl) propyl (2S)-1-((S)-2-(3,4,5-trimethoxyphenyl)butanoyl) piperidine-2-carboxylate]", "values": [{"measurement": "fold change, GFP (Treated vs Non-Treated)", "setting": "[1]; TRE3G gRNA, 0.25 nM", "result": 1.1, "unit": "fold"}, {"measurement": "fold change, GFP (Treated vs Non-Treated)", "setting": "[1]; TRE3G gRNA, 0.5 nM", "result": 1.3, "unit": "fold"}, {"measurement": "fold change, GFP (Treated vs Non-Treated)", "setting": "[1]; TRE3G gRNA, 0.75 nM", "result": 1.3, "unit": "fold"}, {"measurement": "fold change, GFP (Treated vs Non-Treated)", "setting": "[1]; TRE3G gRNA, 1 nM", "result": 1.5, "unit": "fold"}, {"measurement": "fold change, GFP (Treated vs Non-Treated)", "setting": "[1]; TRE3G gRNA, 2.5 nM", "result": 2.8, "unit": "fold"}, {"measurement": "fold change, GFP (Treated vs Non-Treated)", "setting": "[1]; TRE3G gRNA, 5 nM", "result": 12.5, "unit": "fold"}, {"measurement": "fold change, GFP (Treated vs Non-Treated)", "setting": "[1]; TRE3G gRNA, 7.5 nM", "result": 13.9, "unit": "fold"}, {"measurement": "fold change, GFP (Treated vs Non-Treated)", "setting": "[1]; TRE3G gRNA, 10 nM", "result": 15.0, "unit": "fold"}, {"measurement": "fold change, GFP (Treated vs Non-Treated)", "setting": "[1]; TRE3G gRNA, 25 nM", "result": 22.0, "unit": "fold"}, {"measurement": "fold change, GFP (Treated vs Non-Treated)", "setting": "[1]; TRE3G gRNA, 50 nM", "result": 28.8, "unit": "fold"}, {"measurement": "fold change, GFP (Treated vs Non-Treated)", "setting": "[1]; TRE3G gRNA, 75 nM", "result": 27.1, "unit": "fold"}, {"measurement": "fold change, GFP (Treated vs Non-Treated)", "setting": "[1]; TRE3G gRNA, 100 nM", "result": 25.5, "unit": "fold"}, {"measurement": "fold change, GFP", "setting": "[1]; FIG. 5A, NT gRNA, 10 nM", "result": 0.5, "unit": "fold"}, {"measurement": "fold change, GFP", "setting": "[1]; FIG. 5A, TRE3G gRNA, 10 nM", "result": 8.4, "unit": "fold"}, {"measurement": "fold change, GFP", "setting": "[1]; FIG. 5C, NT gRNA, 0.25 nM", "result": 1.0, "unit": "fold"}, {"measurement": "fold change, GFP", "setting": "[1]; FIG. 5C, NT gRNA, 0.5 nM", "result": 1.0, "unit": "fold"}, {"measurement": "fold change, GFP", "setting": "[1]; FIG. 5C, NT gRNA, 0.75 nM", "result": 1.1, "unit": "fold"}, {"measurement": "fold change, GFP", "setting": "[1]; FIG. 5C, NT gRNA, 1 nM", "result": 1.0, "unit": "fold"}, {"measurement": "fold change, GFP", "setting": "[1]; FIG. 5C, NT gRNA, 2.5 nM", "result": 1.0, "unit": "fold"}, {"measurement": "fold change, GFP", "setting": "[1]; FIG. 5C, NT gRNA, 5 nM", "result": 1.1, "unit": "fold"}, {"measurement": "fold change, GFP", "setting": "[1]; FIG. 5C, NT gRNA, 7.5 nM", "result": 1.1, "unit": "fold"}, {"measurement": "fold change, GFP", "setting": "[1]; FIG. 5C, NT gRNA, 10 nM", "result": 1.2, "unit": "fold"}, {"measurement": "fold change, GFP", "setting": "[1]; FIG. 5C, NT gRNA, 25 nM", "result": 1.3, "unit": "fold"}, {"measurement": "fold change, GFP", "setting": "[1]; FIG. 5C, NT gRNA, 50 nM", "result": 1.4, "unit": "fold"}, {"measurement": "fold change, GFP", "setting": "[1]; FIG. 5C, NT gRNA, 75 nM", "result": 1.4, "unit": "fold"}, {"measurement": "fold change, GFP", "setting": "[1]; FIG. 5C, NT gRNA, 100 nM", "result": 1.4, "unit": "fold"}, {"measurement": "fold change, CXCR4 mRNA (Treated vs Non-Treated)", "setting": "[2]", "result": 3.5, "unit": "fold"}, {"measurement": "fold change, GFP (Treated vs Non-Treated)", "setting": "[3]; FIG. 5D, 10 nM", "result": 0.9, "unit": "fold"}, {"measurement": "fold change, GFP (Treated vs Non-Treated)", "setting": "[3]; FIG. 5D, 25 nM", "result": 1.0, "unit": "fold"}, {"measurement": "fold change, GFP (Treated vs Non-Treated)", "setting": "[3]; FIG. 5D, 50 nM", "result": 1.1, "unit": "fold"}, {"measurement": "fold change, GFP (Treated vs Non-Treated)", "setting": "[3]; FIG. 5D, 100 nM", "result": 5.3, "unit": "fold"}, {"measurement": "fold change, GFP (Treated vs Non-Treated)", "setting": "[3]; FIG. 5D, 200 nM", "result": 11.6, "unit": "fold"}, {"measurement": "fold change, GFP (Treated vs Non-Treated)", "setting": "[3]; FIG. 5D, 400 nM", "result": 17.5, "unit": "fold"}, {"measurement": "fold change, GFP (Treated vs Non-Treated)", "setting": "[3]; FIG. 5E, 10 nM", "result": 0.9, "unit": "fold"}, {"measurement": "fold change, GFP (Treated vs Non-Treated)", "setting": "[3]; FIG. 5E, 25 nM", "result": 0.9, "unit": "fold"}, {"measurement": "fold change, GFP (Treated vs Non-Treated)", "setting": "[3]; FIG. 5E, 50 nM", "result": 1.0, "unit": "fold"}, {"measurement": "fold change, GFP (Treated vs Non-Treated)", "setting": "[3]; FIG. 5E, 100 nM", "result": 1.0, "unit": "fold"}, {"measurement": "fold change, GFP (Treated vs Non-Treated)", "setting": "[3]; FIG. 5E, 200 nM", "result": 1.0, "unit": "fold"}, {"measurement": "fold change, GFP (Treated vs Non-Treated)", "setting": "[3]; FIG. 5E, 400 nM", "result": 1.0, "unit": "fold"}]}]}
